Results taken from the NIST ThermoML archive (doi:10.1021/acs.jced.8b00037).
± gives the expanded uncertainty stated by the source.

Test: molar heat capacity at saturation pressure
Details: Liquid, Vacuum adiabatic calorimetry

COC [dimethyl ether]
Details | molar heat capacity [J/K/mol]
133.47 K | 99.41 ± 0.73
136.11 K | 98.99 ± 0.72
138.75 K | 99.09 ± 0.73
141.37 K | 98.75 ± 0.72
143.97 K | 98.64 ± 0.72
146.56 K | 98.99 ± 0.72
149.14 K | 99.23 ± 0.73
151.7 K | 98.99 ± 0.72
154.26 K | 98.77 ± 0.72
156.8 K | 98.65 ± 0.72
159.33 K | 98.43 ± 0.72
161.84 K | 98.67 ± 0.72
164.35 K | 98.6 ± 0.72
166.84 K | 98.46 ± 0.72
169.32 K | 98.32 ± 0.72
171.79 K | 98.39 ± 0.72
174.26 K | 98.44 ± 0.72
176.71 K | 98.47 ± 0.72
179.15 K | 98.73 ± 0.72
181.58 K | 98.78 ± 0.72
184 K | 98.54 ± 0.72
186.41 K | 98.8 ± 0.72
188.82 K | 98.98 ± 0.72
191.21 K | 98.9 ± 0.72
193.6 K | 99.11 ± 0.73
195.98 K | 98.99 ± 0.72
198.36 K | 99.02 ± 0.72
200.73 K | 99.09 ± 0.73
203.08 K | 99.08 ± 0.73
205.44 K | 99.32 ± 0.73
207.79 K | 99.89 ± 0.73
210.13 K | 100.15 ± 0.73
212.46 K | 99.96 ± 0.73
214.79 K | 100.15 ± 0.73
217.12 K | 100.26 ± 0.73
219.43 K | 100.09 ± 0.73
221.74 K | 100.12 ± 0.73
224.04 K | 100.21 ± 0.73
226.34 K | 100.65 ± 0.74
228.64 K | 101.1 ± 0.74
230.92 K | 101.1 ± 0.74
233.21 K | 101.41 ± 0.74
235.49 K | 101.75 ± 0.74
237.76 K | 101.68 ± 0.74
240.03 K | 101.94 ± 0.74
242.31 K | 102.15 ± 0.75
244.57 K | 102.6 ± 0.75
246.84 K | 102.48 ± 0.75
249.11 K | 103.29 ± 0.75
251.38 K | 102.81 ± 0.75
253.64 K | 103 ± 0.75
255.9 K | 103.44 ± 0.76
258.16 K | 103.81 ± 0.76
260.42 K | 104.08 ± 0.76
262.68 K | 104.75 ± 0.76
264.94 K | 105.51 ± 0.77
267.2 K | 105.91 ± 0.77
269.47 K | 106.42 ± 0.78
271.72 K | 106.14 ± 0.77
273.98 K | 106.27 ± 0.77
276.24 K | 107.11 ± 0.78
278.5 K | 108 ± 0.79
280.77 K | 108.08 ± 0.79
283.02 K | 108.35 ± 0.79
285.29 K | 108.89 ± 0.79
287.55 K | 109.42 ± 0.8
289.82 K | 109.46 ± 0.8
292.08 K | 110 ± 0.8
294.36 K | 110.71 ± 0.81
296.63 K | 110.49 ± 0.8
298.9 K | 111.38 ± 0.81
301.19 K | 111.57 ± 0.81
303.45 K | 112.35 ± 0.82
305.74 K | 112.73 ± 0.82
308.02 K | 113.5 ± 0.83
310.3 K | 114.89 ± 0.83
312.58 K | 115.6 ± 0.84
314.87 K | 116.12 ± 0.84
317.16 K | 116.12 ± 0.84
319.44 K | 117.62 ± 0.85
323.96 K | 119.09 ± 0.86
326.26 K | 120.03 ± 0.87
328.57 K | 120.51 ± 0.87
330.88 K | 121.43 ± 0.88
333.2 K | 121.96 ± 0.88
335.54 K | 122.78 ± 0.89
337.89 K | 122.8 ± 0.89
340.24 K | 124.08 ± 0.9
342.62 K | 124.9 ± 0.9
345 K | 125.19 ± 0.91
